Reference: ChEMBL document CHEMBL4706623, “GPR52 Antagonist Reduces Huntingtin Levels and Ameliorates Huntington's Disease-Related Phenotypes” (J Med Chem, 2021)
pIC50: −log10 of the molar value.

Biological target: G-protein coupled receptor 52 (Homo sapiens, UniProt Q9Y2T5)
Experiment: Antagonist activity at GPR52 (unknown origin) expressed in HEK293 cells assessed as inhibition of WO459-induced cAMP accumulation preincubated for 15 mins followed by WO459 addition and measured after 30 mins by LANCE Ultra cAMP kit based microplate reader analysis
Type: functional, cell-based
Conditions: for pIC50: read-out: IC50; for IC50: hek293; call rule not given here

Chain of G-protein coupled receptor 52 (Q9Y2T5 whole entry): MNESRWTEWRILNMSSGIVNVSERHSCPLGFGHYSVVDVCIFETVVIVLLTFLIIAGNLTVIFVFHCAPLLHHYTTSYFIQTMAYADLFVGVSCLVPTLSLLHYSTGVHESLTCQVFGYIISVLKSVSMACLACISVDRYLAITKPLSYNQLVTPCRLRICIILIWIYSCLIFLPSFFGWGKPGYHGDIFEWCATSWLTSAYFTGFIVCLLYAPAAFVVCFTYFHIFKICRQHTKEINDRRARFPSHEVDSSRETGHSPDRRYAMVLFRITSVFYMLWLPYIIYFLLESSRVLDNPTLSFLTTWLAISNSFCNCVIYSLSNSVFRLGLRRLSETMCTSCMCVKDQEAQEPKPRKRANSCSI

Compound | pIC50 | IC50
O=C(/C=C/CCc1ccccc1)CCc1ccccc1 | 5.26 | –
O=C(/C=C/CCc1ccc(Br)cc1)c1ccccc1 | 5.74 | –
O=C(/C=C/CCc1ccccc1)c1cccc2ccccc12 | 5.48 | –
CC/C=C/C(=O)c1ccccc1 | – | Not Active
O=C(/C=C/CCc1ccccc1Br)c1ccccc1 | 5.79 | –
O=C(/C=C/CCc1ccccc1)c1cccc(-c2ccccc2)c1 | 5.09 | –

Results, then the molecule that gave them:

pIC50 | IC50 | Compound
5.76 | – | COc1ccccc1C(=O)/C=C/CCc1ccccc1
– | Not Active | O=C(/C=C/CCc1ccccc1)N1CCCCC1
5.75 | – | O=C(/C=C/CCc1ccccc1)c1ccccc1F
5.74 | – | O=C(/C=C/CCc1ccccc1)c1ccccn1
5.58 | – | Cc1ccccc1C(=O)/C=C/CCc1ccccc1
